Test results reported in patent US20240239796A1, “CRYSTALLINE POLYMORPHS OF EPIDERMAL GROWTH FACTOR RECEPTOR INHIBITOR, AND COMPOSITIONS AND METHODS THEREOF” (Crimson BioPharm Inc., priority 2022, published 2024).
Read-outs that look alike come from different tables or passages of the source.

Experiments:
Format in all cases: physicochemical
[1] = Dynamic moisture sorption analysis (DVS)
Protocol: DVS was determined using DVS Intrinsic (SMS, UK). A sample was tested at a targeted relative humidity (RH) of 10 to 90% full cycle in step mode. The analysis was performed in 10% RH increments: • Equilibrium: 60 min; • RH (%) measurement points: • Sorption: 0, 10, 20, 30, 40, 50, 60, 70, 80, 90 • Desorption: 80, 70, 60, 50, 40, 30, 20, 10, 0.

[2] = Form conversion on heating / desolvation (XRPD, FIG. 5, FIG. 8)
[3] = Inter-conversion study (competitive slurry); conditions: for Slurry at 50° C. 1 or 7 d (wet cake) / Slurry at RT (~20° C.) 3 d (wet cake): competitive slurry in IPA, resulting form; for Form at 7 d: slurry in ACN/water 1/9 (v/v); for form after slurry: ACN-water (1/9)
Protocol: (20 mg/mL) and RT (10 mg/mL), and in ACN-water (1/9) at 50° C. (10 mg/mL) and RT (5 mg/mL).
The mixture of crystalline Form I and crystalline Form V of the sample was suspended in IPA at 50° C. (20 mg/mL) and RT (5 mg/mL).
The residual solids from both mixtures were obtained and characterized.

Rough solubility testing = conditions: for solubility: thermodynamic from solid, ~20° C., read-out: Solubility of Tosylate (mg/mL, ~20° C.); for solubility (in words): RT (~20° C.)
Protocol: About 2 mg of crystalline Form I was weighed into glass vials, and then different selected solvents were added in the vial stepwise until all solid was dissolved. This experiment was conducted by manual dilution combined with visual observation at ˜20° C. The total volume of solvent added was recorded.

Water activity study = test: Water activity study
Protocol: A certain amount (e.g., ˜70 mg) of crystalline Form I was stirred in 500 μL of acetone-water mixtures with different water content (5%, 10%, 30%, 50%, 70% and 90%) at RT (˜20° C.) for 3, 7 or 8 days. Residual solids were collected and characterized.

Slurry study = conditions: XRPD; for Form of wet cake at 1 day: 50° C.; for Form of wet cake at 4 days: RT (~20° C.), ~25 mg/mL
Protocol: Appropriate amount of crystalline Form I was added into different solvents to make suspension. The suspensions were kept stirring at room temperature (RT, ˜20° C.) or 50° C., respectively. Solid samples were collected and analyzed by XRPD at a specific time. If new XRPD patterns were identified, the sample was further analyzed by DSC and TGA.

[4] = Stability study (grinding, high humidity)
Protocol: A certain amount (e.g., ˜10 mg) of crystalline Form I was ground for 2 min or put at 25° C./92.5% RH for 2 weeks. Then the sample was tested by XRPD to determine the physical stability.

[5] = slurry in Acetone/water 1/1 (v/v), water activity 0.93, RT
[6] = slurry in Acetone/water 1/9 (v/v), water activity 0.98, RT
[7] = slurry in Acetone/water 3/7 (v/v), water activity 0.95, RT
[8] = slurry in Acetone/water 7/3 (v/v), water activity 0.88, RT
[9] = slurry in Acetone/water 9/1 (v/v), water activity 0.72, RT
[10] = slurry in Acetone/water 19/1 (v/v), water activity 0.31, RT

SMILES: C=CC(=O)Nc1cc(Nc2nccc(-n3ccc4cccnc43)n2)c(OC)cc1N(C)CCN(C)C.Cc1ccc(S(=O)(=O)O)cc1 [Form VI, N-(5-((4-(1H-pyrrolo[2,3-b]pyridin-1-yl)pyrimidin-2-yl)amino)-2-((2-(dimethylamino)ethyl)(methyl)amino)-4-methoxyphenyl)acrylamide tosylate salt]
- water sorption ([1]; 80% RH and 25° C.): 0.72%
- hygroscopicity ([1]; DVS, 80% RH and 25° C.): slightly hygroscopic
- crystalline form change after DVS test ([1]; after DVS test): no crystalline form change

SMILES: C=CC(=O)Nc1cc(Nc2nccc(-n3ccc4cccnc43)n2)c(OC)cc1N(C)CCN(C)C.Cc1ccc(S(=O)(=O)O)cc1 [Form II, N-(5-((4-(1H-pyrrolo[2,3-b]pyridin-1-yl)pyrimidin-2-yl)amino)-2-((2-(dimethylamino)ethyl)(methyl)amino)-4-methoxyphenyl)acrylamide tosylate salt]
- form conversion after desolvation ([2]; desolvation at 170° C.): transform to crystalline Form III

SMILES: C=CC(=O)Nc1cc(Nc2nccc(-n3ccc4cccnc43)n2)c(OC)cc1N(C)CCN(C)C.Cc1ccc(S(=O)(=O)O)cc1 [Form I and V (1:1)]
- Slurry at 50° C. 1 or 7 d (wet cake) ([3]; 50° C.): From I
- Slurry at RT (~20° C.) 3 d (wet cake) ([3]; RT): Form I

SMILES: C=CC(=O)Nc1cc(Nc2nccc(-n3ccc4cccnc43)n2)c(OC)cc1N(C)CCN(C)C.Cc1ccc(S(=O)(=O)O)cc1 [Form I and III (1:1)]
- Slurry at 50° C. 1 or 7 d (wet cake) ([3]; 50° C.): Form I
- Slurry at RT (~20° C.) 3 d (wet cake) ([3]; RT): Form I
- Form at 7 d ([3]; 50° C.): Form III
- Form at 7 d ([3]; RT (~20° C.)): Form VI

SMILES: C=CC(=O)Nc1cc(Nc2nccc(-n3ccc4cccnc43)n2)c(OC)cc1N(C)CCN(C)C.Cc1ccc(S(=O)(=O)O)cc1 [Form I, N-(5-((4-(1H-pyrrolo[2,3-b]pyridin-1-yl)pyrimidin-2-yl)amino)-2-((2-(dimethylamino)ethyl)(methyl)amino)-4-methoxyphenyl)acrylamide tosylate salt]
- solubility (Rough solubility testing; ACN (acetonitrile), organic solvent or mixture, solvent ACN): ~2.2 mg/mL
- solubility (in words) (Rough solubility testing; in MeOH and DCM): relatively high solubility
- solubility (in words) (Rough solubility testing; in the other single solvents (not MeOH, DCM)): very low solubility
- solubility (Rough solubility testing; organic solvent or mixture, solvent Acetone): ~0.95 mg/mL
- solubility (Rough solubility testing; organic solvent or mixture, solvent DCM): ~5.1 mg/mL
- solubility (Rough solubility testing; organic solvent or mixture, solvent EA): < 1 mg/mL
- solubility (Rough solubility testing; organic solvent or mixture, solvent EtOH): ~1.9 mg/mL
- solubility (Rough solubility testing; organic solvent or mixture, solvent Heptane): < 1 mg/mL
- solubility (Rough solubility testing; organic solvent or mixture, solvent IPA): < 1.11 mg/mL
- solubility (Rough solubility testing; organic solvent or mixture, solvent IPAC): < 1.2 mg/mL
- solubility (Rough solubility testing; organic solvent or mixture, solvent Isobutanol): < 1 mg/mL
- solubility (Rough solubility testing; organic solvent or mixture, solvent MEK): ~0.92 mg/mL
- solubility (Rough solubility testing; organic solvent or mixture, solvent MTBE): < 1.1 mg/mL
- solubility (Rough solubility testing; organic solvent or mixture, solvent MeOH): ~27.3 mg/mL
- solubility (Rough solubility testing; organic solvent or mixture, solvent THF): < 1.14 mg/mL
- solubility (Rough solubility testing; organic solvent or mixture, solvent Toluene): < 1.2 mg/mL
- solubility (Rough solubility testing; solvent Water): < 1.02 mg/mL
- form after slurry ([3]; 50° C.): crystalline Form III
- form after slurry ([3]; RT): crystalline Form VI
- relative stability among crystal forms ([3]; polymorph screening, anhydrate forms): most stable anhydrate form
- Form at 3 d (Water activity study; [5]): Form V
- Form at 7 d (Water activity study; [5]): Form V
- Form at 3 d (Water activity study; [6]): Form I
- Form at 7 d (Water activity study; [6]): Form I
- Form at 3 d (Water activity study; [7]): Form V
- Form at 7 d (Water activity study; [7]): Form V
- Form at 3 d (Water activity study; [8]): Form V
- Form at 7 d (Water activity study; [8]): Form V
- Form at 3 d (Water activity study; [9]): Form V
- Form at 7 d (Water activity study; [9]): Form V
- Form at 3 d (Water activity study; [10]): Form I
- Form at 7 d (Water activity study; [10]): Form VII
- Form at 8 d (Water activity study; [10]): Form V
- Form of wet cake at 1 day (Slurry study; slurry in ACN): Form I
- Form of wet cake at 4 days (Slurry study; slurry in ACN): Form I
- Form of wet cake at 1 day (Slurry study; slurry in Acetone): Form I
- Form of wet cake at 4 days (Slurry study; slurry in Acetone): Form I
- Form of wet cake at 1 day (Slurry study; slurry in EA): Form I
- Form of wet cake at 4 days (Slurry study; slurry in EA): Form I
- Form of wet cake at 1 day (Slurry study; slurry in EtOH): Form I
- Form of wet cake at 4 days (Slurry study; slurry in EtOH): Form I
- Form of wet cake at 1 day (Slurry study; slurry in Heptane): Form I
- Form of wet cake at 4 days (Slurry study; slurry in Heptane): Form I
- Form of wet cake at 1 day (Slurry study; slurry in IPA): Form I
- Form of wet cake at 4 days (Slurry study; slurry in IPA): Form I
- Form of wet cake at 1 day (Slurry study; slurry in IPAC): Form I
- Form of wet cake at 4 days (Slurry study; slurry in IPAC): Form I
- Form of wet cake at 1 day (Slurry study; slurry in Isobutanol): Form I
- Form of wet cake at 4 days (Slurry study; slurry in Isobutanol): Form I
- Form of wet cake at 1 day (Slurry study; slurry in MEK): Form I
- Form of wet cake at 4 days (Slurry study; slurry in MEK): Form I
- Form of wet cake at 1 day (Slurry study; slurry in MTBE): Form I
- Form of wet cake at 4 days (Slurry study; slurry in MTBE): Form I
- Form of wet cake at 1 day (Slurry study; slurry in THF): Form I
- Form of wet cake at 4 days (Slurry study; slurry in THF): Form I
- Form of wet cake at 1 day (Slurry study; slurry in Toluene): Form I
- Form of wet cake at 4 days (Slurry study; slurry in Toluene): Form I
- Form of wet cake at 1 day (Slurry study; slurry in Water): Form I
- Form of wet cake at 4 days (Slurry study; slurry in Water): Form I
- solid-state stability ([4]; after stressing with temperature and high RH): good solid-state stability
- Physical stability (form change by XRPD) ([4]; high humidity, 25° C./92.5% RH for 2 weeks): No form change
- Physical stability (form change by XRPD) ([4]; mechanical stress (grinding, 2 min)): No form change

SMILES: C=CC(=O)Nc1cc(Nc2nccc(-n3ccc4cccnc43)n2)c(OC)cc1N(C)CCN(C)C.Cc1ccc(S(=O)(=O)O)cc1 [Form IV, N-(5-((4-(1H-pyrrolo[2,3-b]pyridin-1-yl)pyrimidin-2-yl)amino)-2-((2-(dimethylamino)ethyl)(methyl)amino)-4-methoxyphenyl)acrylamide tosylate salt]
- form conversion on heating ([2]; heated to 200° C.): convert to crystalline Form III
